Data from ChEMBL document CHEMBL5154891, “Discovery of AZD4625, a Covalent Allosteric Inhibitor of the Mutant GTPase KRASG12C” (J Med Chem, 2022).
pIC50: −log10 of the molar value. Activity calls are given as the source filed them. The calls are words filed in the database; no cut-off is given here.

Tests used:
GTPase KRas = GTPase KRas (Homo sapiens, UniProt P01116, G12C); assay: Inhibition of C-terminal Avi and 6His-tagged human KRAS 2B G12C mutant (1 to 166 residues) expressed in Escherichia coli BL21 (DE3) assessed as inhibition of SOS mediated nucleotide exchange preincubated for 4 hrs followed by SOS1 addition by HTRF assay
[1] = Metabolic stability in rat hepatocytes assessed as intrinsic clearance per 10^6 cells at 5 uM measured after 60 mins by UHPLC/UV/MS/MS; format: ADME, cell-based, Hepatocyte; settings: for hepatocyte CLint at 5 µM: read-out: CLH
[2] = Bioavailability in Han Wistar rat at 2 micromol/kg, po and 1 umol/kg, iv; format: ADME, organism-based; settings: in vivo; for bioavailability: Han Wistar, 2 µmol/kg
[3] = Inhibition of spheroid proliferation in human NCI-H358 cells harboring KRAS G12C mutant measured after 6 days by CellTiter-Glo assay; format: functional, cell-based; settings: NCI-H358, 144 h
[4] = Lipophilicity, log D of the compound at pH 7.4; settings: buffer, pH 7.4, logD
A549 = assay: Inhibition of spheroid proliferation in human A549 cells […] measured after 6 days by CellTiter-Glo assay; format: functional, cell-based; settings: A549, 144 h
[5] = biological target: Ribosomal protein S6 kinase alpha-1 (Homo sapiens, UniProt Q15418, G12C); assay: Inhibition of p90RSK phosphorylation in human NCI-H358 cells harboring KRAS G12C mutant measured for 2 hrs by immunofluorescence assay; format: cell-based
[6] = biological target: T1, Ribosomal protein S6 kinase alpha-1 (Homo sapiens, UniProt Q15418); assay: Inhibition of p90RSK phosphorylation in human PC-9 cells measured for 2 hrs by immunofluorescence assay; format: cell-based
[7] = biological target: T1, Ribosomal protein S6 kinase alpha-1; assay: Inhibition of p90RSK phosphorylation in human Calu-6 cells harboring KRAS Q61K measured for 2 hrs by immunofluorescence assay; format: cell-based
[8] = biological target: Elongation factor 2 (Homo sapiens) (UniProt P13639); assay: Binding affinity to EEF2 in human […] cell lysate assessed as trypsin-mediated biotinylated cysteine residues digestion by measuring reduction in protein level at 4 uM pretreated for 2 hrs followed by labelled with iodoacetamide-desthiobiotin by MS analysis relative to control; format: subcellular; settings: NCI-H358
[9] = biological target: T2, Oxidation resistance protein 1 (Homo sapiens) (UniProt Q8N573); assay: Binding affinity to OXR1 in human […] cell lysate assessed as trypsin-mediated biotinylated cysteine residues digestion by measuring reduction in protein level at 4 uM pretreated for 2 hrs followed by labelled with iodoacetamide-desthiobiotin by MS analysis relative to control; format: subcellular; settings: NCI-H358
T2 sequence (whole entry): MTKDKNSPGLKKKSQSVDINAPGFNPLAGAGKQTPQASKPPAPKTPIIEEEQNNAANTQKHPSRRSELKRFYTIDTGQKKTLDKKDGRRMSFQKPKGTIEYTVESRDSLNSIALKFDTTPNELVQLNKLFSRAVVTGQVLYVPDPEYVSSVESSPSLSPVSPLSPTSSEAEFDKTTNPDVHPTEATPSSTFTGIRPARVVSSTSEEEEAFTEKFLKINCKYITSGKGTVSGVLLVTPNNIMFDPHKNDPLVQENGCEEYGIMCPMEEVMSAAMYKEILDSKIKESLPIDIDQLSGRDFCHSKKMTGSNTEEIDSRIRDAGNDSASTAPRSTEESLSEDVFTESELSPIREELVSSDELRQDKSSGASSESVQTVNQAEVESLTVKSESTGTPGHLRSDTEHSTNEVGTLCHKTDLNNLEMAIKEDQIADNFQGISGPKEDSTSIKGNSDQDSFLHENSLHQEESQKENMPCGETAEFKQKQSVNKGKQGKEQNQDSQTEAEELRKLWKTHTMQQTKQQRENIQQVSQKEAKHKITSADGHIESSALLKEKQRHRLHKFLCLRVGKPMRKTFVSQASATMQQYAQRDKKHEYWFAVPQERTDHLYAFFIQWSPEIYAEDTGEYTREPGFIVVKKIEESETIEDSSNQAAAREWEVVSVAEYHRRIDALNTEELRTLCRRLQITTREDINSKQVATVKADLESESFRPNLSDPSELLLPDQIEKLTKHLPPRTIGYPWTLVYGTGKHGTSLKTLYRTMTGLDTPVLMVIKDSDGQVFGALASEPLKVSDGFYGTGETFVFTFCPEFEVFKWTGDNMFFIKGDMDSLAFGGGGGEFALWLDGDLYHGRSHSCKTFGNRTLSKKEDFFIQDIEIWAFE

MIA PaCa-2 = assay: Antitumor activity against human MIA PaCa-2 cells harbouring KRAS G12C mutant xenografted in athymic nude Foxn1 nu mouse assessed as tumor regression at 100 mg/kg, po administered daily for 21 days and measured twice weekly by caliper analysis; format: functional, organism-based; settings: time 21.0 day
Mus musculus = assay: In vivo inhibition of RAS/MAPK pathway in human MIA PaCa-2 cells harbouring KRAS G12C mutant xenografted in athymic nude Foxn1 nu mouse assessed as reduction in DUSP6 expression measured at 3 to 6 hrs post dose; format: functional; settings: dose 4-100 mg/kg, time 3-6 hrs, DDE = dose-dependent effect
[10] = Metabolic stability in human Hepatocyte assessed as intrinsic clearance measured per 10^6 cells; format: ADME, cell-based; settings: hepatocytes, read-out: CLH
[11] = Hepatic blood flow in CD-1 mouse; format: ADME
[12] = Hepatic blood flow in Wistar Han rat; format: ADME
[13] = Hepatic blood flow in Beagle dog; format: ADME, Canis lupus familiaris
[14] = Toxicity in athymic nude-Foxn1nu mouse xenografted with human MIA PaCa-2 cells assessed as tolerability at 4 to 100 mg/kg, po administered for 21 days; format: organism-based; settings: in vivo, 504 h, dose 4-100 mg/kg, time 21 day
in vitro = settings: human, liver microsomes, CLH
[15] = Drug metabolism in human hepatocyte assessed as oxidative metabolism; format: ADME, cell-based; settings: hepatocytes, 1 h, time 60 min
[16] = Stability in mouse whole blood; format: ADME, tissue-based
[17] = Stability in rat whole blood; format: ADME, tissue-based
[18] = Stability in dog whole blood; format: ADME, tissue-based, Canis lupus familiaris
[19] = Stability in monkey whole blood; format: ADME, tissue-based, Macaca mulatta; settings: rhesus monkey

Row | SMILES | pIC50 (GTPase KRas) | logD [4] | hepatocyte CLint at 5 µM [1] | bioavailability [2] | microsomal CLint at 1 h, 5 µM (in vitro) | further results
1 | C=CC(=O)N1CCN2c3ncnc4cc(-c5c(C)ccc6[nH]ncc56)c(Cl)c(c34)OC[C@H]2C1 (atropisomer aR) | 6.77 |  |  |  |  | 
2 | C=CC(=O)N1CCN(c2ncnc3cc(-c4c(C)ccc5[nH]ncc45)c(Cl)cc23)CC1 |  | 3.5 | 56 µL/min/1e6 cells |  | 38 µL/min/mg | 
3 | C=CC(=O)N1C[C@@H]2CCOc3c(Cl)c(-c4c(O)cccc4F)c(F)c4ncnc(c34)N2C[C@@H]1C | 6.86 | 3.2 | 143 µL/min/1e6 cells | 51% | 203 µL/min/mg | 
4 | C=CC(=O)N1CCN2c3ncnc4cc(-c5c(C)ccc6[nH]ncc56)c(Cl)c(c34)OC[C@@H]2C1 (single isomer, unassigned; atropisomer 2) | 4.57 |  |  |  |  | 
5 | C=CC(=O)N1CCN2c3ncnc4cc(-c5c(C)ccc6[nH]ncc56)c(Cl)c(c34)OC[C@@H]2C1 (atropisomer aS) |  |  | 109 µL/min/1e6 cells |  | 58 µL/min/mg | 
6 | C=CC(=O)N1CCN2c3ncnc4cc(-c5c(C)ccc6[nH]ncc56)c(Cl)c(c34)OCC[C@@H]2C1 (single isomer, unassigned; atropisomer 1) | 4.81 | 3.4 | 50 µL/min/1e6 cells |  | 192 µL/min/mg | 
7 | C=CC(=O)N1CCN2c3ncnc4cc(-c5c(C)ccc6[nH]ncc56)c(Cl)c(c34)OC[C@H]2C1 (single isomer, unassigned; atropisomer 2) | 4.75 |  |  |  |  | 

Further lines, with some results ahead:

Row | pIC50 (GTPase KRas) | logD [4] | hepatocyte CLint at 5 µM [1] | bioavailability [2] | microsomal CLint at 1 h, 5 µM (in vitro) | SMILES | further results
8 | 7.19 |  |  |  |  | C=CC(=O)N1C[C@H]2COc3c(Cl)c(-c4c(O)cccc4F)c(F)c4ncnc(c34)N2C[C@H]1C (stereo in doubt; 32) | CLint_hep ([1]; 1 h, 5 µM): 43 uL/min/1e6 cells; F ([2]; po, at 2 µmol/kg): 31%; GI50 ([3]; time 6 day): 284 nM
9 | 8.52 | 3.2 | 40 µL/min/1e6 cells | 75% | 28 µL/min/mg | C=CC(=O)N1C[C@@H]2CCOc3c(Cl)c(-c4c(O)cccc4F)c(F)c4ncnc(c34)N2C[C@H]1C | pIC50 [3]: 8.39; pIC50 (A549): 5.78; pIC50 [5]: 7.44; pIC50 [6]: 5.31; pIC50 [7]: < 4.52; Activity [8]: Active; Activity [9]: Active; Activity (MIA PaCa-2): Active; Activity (Mus musculus): Dde; hepatocyte CLint [10]: < 2 µL/min/1e6 cells; QH [11]: 152 mL/min/kg; QH [12]: 72 mL/min/kg; QH [13]: 55 mL/min/kg; Activity [14]: Non-Toxic
10 | 6.93 | 3.2 | 64 µL/min/1e6 cells | 28% | 24 µL/min/mg | C=CC(=O)N1C[C@H]2COc3c(Cl)c(-c4c(O)cccc4F)c(F)c4ncnc(c34)N2C[C@H]1C (stereo in doubt; 30) | 
11 | 8.05 | 3.4 | 46 µL/min/1e6 cells | 16% | 189 µL/min/mg | C=CC(=O)N1CCN2c3ncnc4cc(-c5c(C)ccc6[nH]ncc56)c(Cl)c(c34)OCC[C@H]2C1 (single isomer, unassigned; atropisomer 2) | Drug metabolism [15]: Metabolite_Detected; hepatocyte CLint [10]: 20 µL/min/1e6 cells
12 | 7.72 | 2.9 | 79 µL/min/1e6 cells | 0% | 13 µL/min/mg | C=CC(=O)N1CCN2c3ncnc4c(F)c(-c5c(O)cccc5F)c(Cl)c(c34)OC[C@@H]2C1 | Stability [16]: Unstable; Stability [17]: Unstable; Stability [18]: Unstable; Stability [19]: Unstable
13 | 6.87 | 3.4 | 238 µL/min/1e6 cells | 31% | 110 µL/min/mg | C=CC(=O)N1C[C@H]2COc3c(Cl)c(-c4c(O)cccc4F)c(F)c4ncnc(c34)N2C[C@@H]1C | 
14 | > 8.30 | 2.7 | 99 µL/min/1e6 cells | 36% | 66 µL/min/mg | C=CC(=O)N1CCN2c3ncnc4c(F)c(-c5c(O)cccc5F)c(Cl)c(c34)OCC[C@H]2C1 | hepatocyte CLint [10]: 12 µL/min/1e6 cells
